Data from article PMC9754640, “Z-REX uncovers a bifurcation in function of Keap1 paralogs” (eLife, 2022).

Assays:
hKeap1 [1] = biological target: T1, hKeap1 (Homo sapiens, UniProt Q14145); assay: Z-REX in zebrafish embryos, biotin-azide Click, streptavidin pulldown, western blot; conditions: covalent; alkyne-labelled compound released from Ht-PreDE (6 uM) in live embryos; also labelled by bolus DE
T1 construct: gene KEAP1; full-length, His6-HaloTag-TEV fusion (2xHA C-terminal in fish); TEV-cleaved after lysis, about 70 kDa; expressed in HEK293T cells or zebrafish embryos
T1 sequence (Q14145 whole entry, the tested form may be a part): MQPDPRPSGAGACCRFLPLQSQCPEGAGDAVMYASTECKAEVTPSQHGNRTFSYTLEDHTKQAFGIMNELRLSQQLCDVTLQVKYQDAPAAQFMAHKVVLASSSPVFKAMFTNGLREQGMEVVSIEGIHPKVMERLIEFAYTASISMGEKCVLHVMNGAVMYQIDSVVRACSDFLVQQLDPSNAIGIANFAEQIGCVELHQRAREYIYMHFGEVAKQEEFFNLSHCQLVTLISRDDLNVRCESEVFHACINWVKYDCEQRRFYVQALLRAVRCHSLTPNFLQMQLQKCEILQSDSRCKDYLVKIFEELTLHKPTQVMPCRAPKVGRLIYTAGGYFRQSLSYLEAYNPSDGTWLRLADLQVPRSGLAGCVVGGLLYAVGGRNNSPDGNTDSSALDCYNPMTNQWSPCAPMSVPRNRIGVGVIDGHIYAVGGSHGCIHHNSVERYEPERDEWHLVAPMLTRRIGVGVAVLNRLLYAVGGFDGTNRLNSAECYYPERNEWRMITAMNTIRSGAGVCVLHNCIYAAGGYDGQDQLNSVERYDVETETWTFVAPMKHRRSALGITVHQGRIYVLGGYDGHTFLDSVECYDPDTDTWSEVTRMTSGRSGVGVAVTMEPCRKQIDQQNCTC

hKeap1 [2] = biological target: T1, hKeap1; assay: T-REX photouncaging in HEK293T, TEV cleavage, Cy5-azide Click in-gel fluorescence; type: cell-based; conditions: covalent; alkyne-labelled compound released from Ht-PreHNE bound to HaloTag (25 uM in methods), live cells
zKeap1a [3] = biological target: T2, zKeap1a (Danio rerio, UniProt Q1ECZ2); assay: as above; type: cell-based; conditions: covalent; alkyne-labelled compound released from Ht-PreHNE bound to HaloTag (25 uM in methods), live cells
T2 construct: gene keap1a; full-length, myc-HaloTag-TEV-3xFlag N-terminal fusion, TEV-cleaved after lysis; HEK293T expression
T2 sequence (Q1ECZ2 1-601): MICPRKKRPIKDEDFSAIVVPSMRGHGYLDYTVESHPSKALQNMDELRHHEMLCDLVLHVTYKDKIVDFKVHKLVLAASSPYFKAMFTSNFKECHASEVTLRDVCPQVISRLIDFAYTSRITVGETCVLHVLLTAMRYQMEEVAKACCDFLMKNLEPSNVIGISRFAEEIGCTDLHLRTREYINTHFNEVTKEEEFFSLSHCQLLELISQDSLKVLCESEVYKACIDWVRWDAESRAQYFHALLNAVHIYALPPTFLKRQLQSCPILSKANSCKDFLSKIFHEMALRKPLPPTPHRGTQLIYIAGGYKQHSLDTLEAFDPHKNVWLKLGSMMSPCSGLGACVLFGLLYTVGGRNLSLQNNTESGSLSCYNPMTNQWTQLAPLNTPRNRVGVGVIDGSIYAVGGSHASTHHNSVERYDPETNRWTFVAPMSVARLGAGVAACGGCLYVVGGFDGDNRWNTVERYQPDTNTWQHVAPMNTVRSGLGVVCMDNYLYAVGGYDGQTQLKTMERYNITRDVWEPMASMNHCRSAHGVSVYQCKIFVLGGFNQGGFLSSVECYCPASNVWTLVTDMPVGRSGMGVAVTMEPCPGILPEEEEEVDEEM

zKeap1b [4] = biological target: T3, zKeap1b (Danio rerio, UniProt A0A2R8Q1W5); assay: as above; type: cell-based; conditions: covalent; alkyne-labelled compound released from Ht-PreHNE bound to HaloTag (25 uM in methods), live cells
T3 construct: gene keap1b; full-length, myc-HaloTag-TEV-3xFlag N-terminal fusion, TEV-cleaved after lysis; HEK293T expression
T3 sequence (A0A2R8Q1W5 1-593 isoform A0A2R8Q1W5-3): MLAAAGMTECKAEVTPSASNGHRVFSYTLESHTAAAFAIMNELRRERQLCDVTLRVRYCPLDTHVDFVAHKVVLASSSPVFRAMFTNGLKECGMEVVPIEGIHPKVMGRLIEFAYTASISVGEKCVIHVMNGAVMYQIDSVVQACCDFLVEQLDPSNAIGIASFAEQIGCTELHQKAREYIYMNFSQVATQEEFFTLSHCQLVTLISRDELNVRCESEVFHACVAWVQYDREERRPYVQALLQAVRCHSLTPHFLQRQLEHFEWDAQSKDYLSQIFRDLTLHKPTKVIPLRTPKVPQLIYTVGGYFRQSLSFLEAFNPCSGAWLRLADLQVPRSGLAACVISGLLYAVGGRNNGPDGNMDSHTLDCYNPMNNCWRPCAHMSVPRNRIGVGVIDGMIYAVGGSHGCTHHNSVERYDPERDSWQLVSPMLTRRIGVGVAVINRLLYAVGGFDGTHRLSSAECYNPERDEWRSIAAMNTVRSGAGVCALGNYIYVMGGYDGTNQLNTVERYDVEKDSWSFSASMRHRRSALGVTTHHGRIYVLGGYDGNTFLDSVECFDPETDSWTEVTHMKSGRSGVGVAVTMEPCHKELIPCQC

hKeap1 [5] = biological target: T4, hKeap1 (Homo sapiens, UniProt Q14145, C273I); assay: as above; type: cell-based; conditions: covalent; alkyne-labelled compound released from Ht-PreHNE bound to HaloTag (25 uM in methods), live cells
T4 construct: gene KEAP1; full-length, His6-HaloTag-TEV fusion (2xHA C-terminal in fish); TEV-cleaved after lysis, about 70 kDa; expressed in HEK293T cells or zebrafish embryos
T4 sequence (Q14145 whole entry C273I, the tested form may be a part): as the sequence (Q14145 whole entry, the tested form may be a part) above, with C273I counted along it

hKeap1 [6] = biological target: T4, hKeap1; assay: as above; type: cell-based; conditions: covalent; alkyne-labelled compound released from Ht-PreNE bound to HaloTag (10 uM in legend, 25 uM in methods), live cells
hKeap1 [7] = biological target: T1, hKeap1; assay: as above; type: cell-based; conditions: covalent; alkyne-labelled compound released from Ht-PreNE bound to HaloTag (10 uM in legend, 25 uM in methods), live cells
zKeap1a [8] = biological target: T2, zKeap1a; assay: as above; type: cell-based; conditions: covalent; alkyne-labelled compound released from Ht-PreNE bound to HaloTag (10 uM in legend, 25 uM in methods), live cells
zKeap1b [9] = biological target: T3, zKeap1b; assay: as above; type: cell-based; conditions: covalent; alkyne-labelled compound released from Ht-PreNE bound to HaloTag (10 uM in legend, 25 uM in methods), live cells

C#CCCCC/C=C/C(C)=O [DE]
Z-REX in zebrafish embryos, biotin-azide Click, streptavidin pulldown, western b (hKeap1 [1]): using DE as an example that hKeap1-labeling extent was similar to that achieved with HNE

C#CCCCC(O)/C=C/C=O (stereo not drawn) [HNE]
T-REX photouncaging in HEK293T, TEV cleavage, Cy5-azide Click in-gel fluorescenc (hKeap1 [2]): all four proteins sensed HNE equally well
T-REX photouncaging in HEK293T, TEV cleavage, Cy5-azide Click in-gel fluorescenc (zKeap1a [3]): all four proteins sensed HNE equally well
T-REX photouncaging in HEK293T, TEV cleavage, Cy5-azide Click in-gel fluorescenc (zKeap1b [4]): all four proteins sensed HNE equally well
T-REX photouncaging in HEK293T, TEV cleavage, Cy5-azide Click in-gel fluorescenc (hKeap1 [5]): all four proteins sensed HNE equally well

C#CCCCC/C=C/C=O [NE]
targeting efficiency (hKeap1 [6]): hKeap1 and hKeap1(C273I) sensed NE marginally better than zKeap1a/b
targeting efficiency (hKeap1 [7]): hKeap1 and hKeap1(C273I) sensed NE marginally better than zKeap1a/b
targeting efficiency (zKeap1a [8]): zKeap1a/b, both of which sensed NE to the same extent
targeting efficiency (zKeap1b [9]): zKeap1a/b, both of which sensed NE to the same extent
